From US20080194585A1, “Fungicidal Pyrazine Derivatives” (priority 2005, published 2008)
Marks after values point to notes of the source that are not given here.

Experiments:
[1] = tested on: Phytophthora infestans; experiment: whole plant or invertebrate; type: in vivo; settings: for Test F disease control rating: 200 ppm; for pest or weed control at 200 ppm: Phytophthora infestans, in Solanum lycopersicum, topical, 144 h, read-out: Test F disease control rating
[2] = tested on: Pythium aphanidermatum; experiment: Test A: bluegrass pythium blight, preventive spray on bluegrass seedlings; settings: for Test A disease control rating: 200 ppm; for pest or weed control at 200 ppm: Pythium aphanidermatum, 120 h, read-out: Test A disease control rating
[3] = tested on: Puccinia recondita f. sp. tritici; experiment: Test K: wheat leaf rust, preventive spray on wheat seedlings; settings: for pest or weed control at 200 ppm: Puccinia recondita, in Triticum aestivum, 192 h, read-out: Test K disease control rating
[4] = tested on: Rhizoctonia oryzae; experiment: Test G: turf brown patch, preventive spray on creeping bent grass seedlings; settings: for pest or weed control at 200 ppm: Waitea circinata, in Agrostis stolonifera, topical, 144 h, read-out: Test G disease control rating, 200 ppm
Description: (the causal agent of turf brown patch) and incubated in a saturated atmosphere at 27° C. for 24 h, and then moved to a growth chamber at 27° C. for 5 days, after which disease ratings were made.

[5] = tested on: Colletotrichum orbiculare; experiment: Test B: cucumber Colletotrichum anthracnose, preventive spray on cucumber seedlings; settings: for Test B disease control rating: 200 ppm; for pest or weed control at 200 ppm: Colletotrichum orbiculare, in Cucumis sativus, 144 h, read-out: Test B disease control rating, 200 ppm
[6] = tested on: Plasmopara viticola; experiment: Test D: grape downy mildew, spray after inoculation of grape seedlings; type: in vivo; settings: 200 ppm; for pest or weed control at 200 ppm: Plasmopara viticola, 168 h, read-out: Test D disease control rating
From the text: Upon removal, disease ratings were made. […] A dash (-) indicates no test results.

[7] = tested on: Septoria tritici; experiment: Test J: wheat leaf blotch, preventive spray on wheat seedlings; type: in vivo; settings: for pest or weed control at 200 ppm: Zymoseptoria tritici, 528 h, read-out: Test J disease control rating
From the text: A dash (-) indicates no test results.

[8] = tested on: Sclerotinia sclerotiorum; experiment: Test C: cucumber white mold, preventive spray on cucumber seedlings; settings: for Test C disease control rating: 200 ppm; for pest or weed control at 200 ppm: Sclerotinia sclerotiorum, in Cucumis sativus, 168 h, read-out: Test C disease control rating, 200 ppm
[9] = tested on: Septoria nodorum; experiment: Test H: wheat glum blotch, preventive spray on wheat seedlings; settings: for pest or weed control at 200 ppm: Parastagonospora nodorum, in Triticum aestivum, topical, 168 h, read-out: Test H disease control rating, 200 ppm
Description: (the causal agent of wheat glum blotch) and incubated in a saturated atmosphere at 20° C. for 48 h, and then moved to a growth chamber at 22° C. for 5 days, after which disease ratings were made.

[10] = tested on: fusarium graminearium; experiment: Test I: wheat head scab, preventive spray on wheat seedlings; settings: for Test I disease control rating: 200 ppm; for pest or weed control at 200 ppm: Fusarium, in Triticum aestivum, topical, 192 h, read-out: Test I disease control rating, 200 ppm
Description: (the causal agent of wheat head scab) and incubated in a saturated atmosphere at 20° C. for 72 h, and then moved to a growth chamber at 22° C. for 5 days, after which disease ratings were made.

[11] = tested on: Erysiphe graminis f. sp. tritici; experiment: Test L: wheat powdery mildew, preventive spray on wheat seedlings; settings: for pest or weed control at 200 ppm: Blumeria graminis, in Triticum aestivum, 168 h, read-out: Test L disease control rating, 200 ppm
[12] = tested on: Botrytis cinerea; experiment: Test E: tomato botrytis, preventive spray on tomato seedlings; settings: for pest or weed control at 200 ppm: Botrytis cinerea, in Solanum lycopersicum, topical, 72 h, read-out: Test E disease control rating
[13] = 100 = 100% disease control, 0 = no control
[14] = 200 ppm, 100 = 100% disease control, 0 = no control

## CCC(C)Cn1c(-c2ccc(F)cc2Cl)c(Cl)nc(-n2ccc(Br)n2)c1=O (racemic) [compound 259]
[1]; [13]
  Test F disease control rating: 0%
[2]; [13]
  Test A disease control rating: 82%
[3]; [14]
  Test K disease control rating: 89%
[4]; [14]
  Test G disease control rating: 16%
[5]; [13]
  Test B disease control rating: 94%
[6]; [13]
  Test D disease control rating: 0%
[7]; [14]
  Test J disease control rating: 100%
[8]; [13]
  Test C disease control rating: 0%
[9]; [14]
  Test H disease control rating: 0%
[10]; [13]
  Test I disease control rating: 0%
[11]; [14]
  Test L disease control rating: 59%
[12]; [14]
  Test E disease control rating: 100%

## CCC(C)Cn1c(-c2ccc(F)cc2Cl)c(Cl)nc(-n2cc(Br)c(C)n2)c1=O (racemic) [compound 260]
[1]; [13]
  Test F disease control rating: 0%
[2]; [13]
  Test A disease control rating: 0%
[3]; [14]
  Test K disease control rating: 80%
[4]; [14]
  Test G disease control rating: 0%
[5]; [13]
  Test B disease control rating: 9%
[6]; [13]
  Test D disease control rating: 0%
[7]; [14]
  Test J disease control rating: 97%
[8]; [13]
  Test C disease control rating: 0%
[9]; [14]
  Test H disease control rating: 0%
[10]; [13]
  Test I disease control rating: 0%
[11]; [14]
  Test L disease control rating: 50%
[12]; [14]
  Test E disease control rating: 99%

## CCC(C)Cn1c(-c2ccc(F)cc2Cl)c(Cl)nc(-n2ccc(C(OC)OC)n2)c1=O (racemic) [compound 261]
[1]; [13]
  Test F disease control rating: 0%
[2]; [13]
  Test A disease control rating: 0%
[3]; [14]
  Test K disease control rating: 100%
[4]; [14]
  Test G disease control rating: 0%
[5]; [13]
  Test B disease control rating: 100%
[6]; [13]
  Test D disease control rating: 40%
[7]; [14]
  Test J disease control rating: 100%
[8]; [13]
  Test C disease control rating: 83%
[9]; [14]
  Test H disease control rating: 99%
[10]; [13]
  Test I disease control rating: 0%
[11]; [14]
  Test L disease control rating: 98%
[12]; [14]
  Test E disease control rating: 100%

## CC(C)Cn1c(-c2c(F)cccc2F)c(Cl)nc(-c2ccccn2)c1=O [Compound 2, 5-Chloro-6-(2,6-difluorophenyl)-1-(2-methylpropyl)-3-(2-pyridinyl)-2(1H)-pyrazinone]
[1]
  pest or weed control at 200 ppm: 0%
[2]
  pest or weed control at 200 ppm: 38%
[3]
  pest or weed control at 200 ppm: 100%
[4]
  pest or weed control at 200 ppm: 100%
[5]
  pest or weed control at 200 ppm: 100%
[6]
  pest or weed control at 200 ppm: 77%
[7]; 200 ppm
  pest or weed control at 200 ppm: 99%
[8]
  pest or weed control at 200 ppm: 97%
[9]
  pest or weed control at 200 ppm: 100%
[10]
  pest or weed control at 200 ppm: 97%
[11]
  pest or weed control at 200 ppm: 100%
[12]
  pest or weed control at 200 ppm: 100%

## CC(C)Cn1c(-c2ccc(F)cc2Cl)c(Cl)nc(-n2cccn2)c1=O [Compound 53, 5-Chloro-6-(2-chloro-4-fluorophenyl)-1-(2-methylpropyl)-3-(1H-pyrazol-1-yl)-2(1H)-pyrazinone]
[1]
  Test F disease control rating: 0%
[2]
  Test A disease control rating: 0%
[3]
  pest or weed control at 200 ppm: 100%
[4]
  pest or weed control at 200 ppm: 82%
[5]
  pest or weed control at 200 ppm: 100%
[6]
  pest or weed control at 200 ppm: 0%
[7]; 40 ppm (*)
  Test J disease control rating: 100* %
[8]
  pest or weed control at 200 ppm: 99%
[9]
  pest or weed control at 200 ppm: 100%
[10]
  pest or weed control at 200 ppm: 90%
[11]
  pest or weed control at 200 ppm: 99%
[12]
  pest or weed control at 200 ppm: 100%

## CC(C)Cn1c(-c2c(F)cccc2F)c(Cl)nc(-c2cn(C)cn2)c1=O [Compound 85, 5-Chloro-6-(2,6-difluorophenyl)-1-(2-methylpropyl)-3-(1-methyl-1H-imidazol-4-yl)-2(1H)-pyrazinone]
[1]
  pest or weed control at 200 ppm: 0%
[2]
  pest or weed control at 200 ppm: 0%
[3]
  pest or weed control at 200 ppm: 99%
[5]
  pest or weed control at 200 ppm: 80%
[6]
  pest or weed control at 200 ppm: 0%
[7]; 200 ppm
  pest or weed control at 200 ppm: 100%
[8]
  pest or weed control at 200 ppm: 95%
[9]
  pest or weed control at 200 ppm: 97%
[10]
  pest or weed control at 200 ppm: 55%
[11]
  pest or weed control at 200 ppm: 0%
[12]
  pest or weed control at 200 ppm: 100%

## COc1nc(-n2cccn2)c(=O)n(C2CCCCC2)c1-c1c(F)cccc1F [compound 49]
[1]
  Test F disease control rating: 0%
[2]
  Test A disease control rating: 0%
[3]; 200 ppm
  Test K disease control rating: 0%
[4]; 200 ppm
  Test G disease control rating: 16%
[5]
  Test B disease control rating: 0%
[6]
  Test D disease control rating: 8%
[8]
  Test C disease control rating: 0%
[9]; 200 ppm
  Test H disease control rating: 0%
[10]
  Test I disease control rating: 0%
[11]; 200 ppm
  Test L disease control rating: 21%
[12]; 200 ppm
  Test E disease control rating: 47%

## CC(C)Cn1c(-c2ccc(F)cc2Cl)c(Cl)nc(-n2cncn2)c1=O [compound 51]
[1]
  Test F disease control rating: 0%
[2]
  Test A disease control rating: 0%
[3]; 200 ppm
  Test K disease control rating: 100%
[4]; 200 ppm
  Test G disease control rating: 31%
[5]
  Test B disease control rating: 98%
[6]
  Test D disease control rating: 0%
[8]
  Test C disease control rating: 99%
[9]; 200 ppm
  Test H disease control rating: 100%
[10]
  Test I disease control rating: 94%
[11]; 200 ppm
  Test L disease control rating: 63%
[12]; 200 ppm
  Test E disease control rating: 100%

## CC(C)Cn1c(-c2cccc(F)c2F)c(Cl)nc(-n2cncn2)c1=O [compound 52]
[1]
  Test F disease control rating: 0%
[2]
  Test A disease control rating: 0%
[3]; 200 ppm
  Test K disease control rating: 74%
[4]; 200 ppm
  Test G disease control rating: 16%
[5]
  Test B disease control rating: 0%
[6]
  Test D disease control rating: 0%
[8]
  Test C disease control rating: 90%
[9]; 200 ppm
  Test H disease control rating: 98%
[10]
  Test I disease control rating: 0%
[11]; 200 ppm
  Test L disease control rating: 21%
[12]; 200 ppm
  Test E disease control rating: 98%

## CC(C)Cn1c(-c2cc(F)ccc2F)c(Cl)nc(-n2cncn2)c1=O [compound 54]
[1]
  Test F disease control rating: 0%
[2]
  Test A disease control rating: 0%
[3]; 200 ppm
  Test K disease control rating: 98%
[4]; 200 ppm
  Test G disease control rating: 84%
[5]
  Test B disease control rating: 0%
[6]
  Test D disease control rating: 0%
[8]
  Test C disease control rating: 92%
[9]; 200 ppm
  Test H disease control rating: 90%
[10]
  Test I disease control rating: 0%
[11]; 200 ppm
  Test L disease control rating: 0%
[12]; 200 ppm
  Test E disease control rating: 100%

## CC(C)Cn1c(-c2c(F)ccc(F)c2F)c(Cl)nc(-n2cncn2)c1=O [compound 55]
[1]
  Test F disease control rating: 0%
[2]
  Test A disease control rating: 0%
[3]; 200 ppm
  Test K disease control rating: 99%
[4]; 200 ppm
  Test G disease control rating: 96%
[5]
  Test B disease control rating: 0%
[6]
  Test D disease control rating: 0%
[8]
  Test C disease control rating: 85%
[9]; 200 ppm
  Test H disease control rating: 95%
[10]
  Test I disease control rating: 78%
[11]; 200 ppm
  Test L disease control rating: 0%
[12]; 200 ppm
  Test E disease control rating: 100%

## CCC(C)Cn1c(-c2c(F)cccc2F)c(Cl)nc(-n2ccnc2C)c1=O (stereo not drawn) [compound 69]
[1]
  Test F disease control rating: 0%
[2]
  Test A disease control rating: 0%
[3]; 40 ppm (*)
  Test K disease control rating: 61* %
[4]; 40 ppm (*)
  Test G disease control rating: 0* %
[6]
  Test D disease control rating: 0%
[7]; 40 ppm (*)
  Test J disease control rating: 62* %
[8]
  Test C disease control rating: 0%
[9]; 40 ppm (*)
  Test H disease control rating: 0* %
[10]
  Test I disease control rating: 0%
[11]; 40 ppm (*)
  Test L disease control rating: 0* %
[12]; 40 ppm (*)
  Test E disease control rating: 0* %

## CC(C)Cn1c(-c2c(F)cccc2F)c(Cl)nc(-c2cncn2C)c1=O [compound 83]
[1]
  Test F disease control rating: 47%
[2]
  Test A disease control rating: 0%
[3]; 200 ppm
  Test K disease control rating: 79%
[5]
  Test B disease control rating: 9%
[6]
  Test D disease control rating: 0%
[7]; 200 ppm
  Test J disease control rating: 18%
[8]
  Test C disease control rating: 64%
[9]; 200 ppm
  Test H disease control rating: 0%
[10]
  Test I disease control rating: 0%
[11]; 200 ppm
  Test L disease control rating: 0%
[12]; 200 ppm
  Test E disease control rating: 0%

## CC(C)Cn1c(-c2ccc3ccccc3c2)c(Cl)nc(-n2cccn2)c1=O [compound 90]
[1]
  Test F disease control rating: 0%
[2]
  Test A disease control rating: 0%
[3]; 200 ppm
  Test K disease control rating: 0%
[5]
  Test B disease control rating: 0%
[6]
  Test D disease control rating: 16%
[7]; 200 ppm
  Test J disease control rating: 0%
[8]
  Test C disease control rating: 63%
[9]; 200 ppm
  Test H disease control rating: 0%
[10]
  Test I disease control rating: 0%
[11]; 200 ppm
  Test L disease control rating: 0%
[12]; 200 ppm
  Test E disease control rating: 0%
